The values below are quoted from earlier work in article PMC11599114 (Viruses, 2024).

Series [1] concerns SARS-CoV-2. The arrangement: method as in 3 sources. The note with it: SARS-CoV-2 infection, Vero E6.
A further series has as its system HCoV-OC43. The note with it: HCoV-OC43, Vero.
The subject of series [2] is SARS-CoV-2. The conditions noted are these: SARS-CoV-2, Vero.
In the next series the test system is HSV-1. The conditions noted are these: HSV-1, Vero.
The next series concerns HSV-2. The note with it: HSV-2, Vero.
The test system of the next series is HPIV-3. The conditions noted are these: HPIV-3, Vero.
Series [3] concerns HCoV-229E. The note with it: Vero.
Series [4] deals with SARS-CoV.
In the next series the test system is A/Roma-ISS/02/08 H1N1. The conditions noted are these: A/Roma-ISS/02/08 H1N1, MDCK.
The subject of the next series is influenza A virus(H1N1). The arrangement: method as in 2 sources.
In a further series the test system is influenza A virus(H3N2). The arrangement: method as in 2 sources.
The test system of another series is HSV. Details: method as in ref 35663971. The conditions noted are these: Huh7, at 10 μM.
The next series has as its system Dengue virus 2(DENV2). Details: method as in ref 35663971. The conditions noted are these: DENV2, Huh7, at 10 μM.
The test system of series [5] is SARS-CoV-2. Details: method as in ref 35663971. The conditions noted are these: SARS-CoV-2, Huh7, at 10 μM.
In series [6] the test system is SARS-CoV. The conditions noted are these: 100 µM.
For the next series, the system named is SARS-CoV-2(Delta). The arrangement: method as in ref 35259078. The note with it: Vero E6.
The test system of the next series is influenza B virus. Details: method as in ref 35259078. The note with it: FluB, MDCK.
For the next series, the system named is SARS-CoV-2 (HKU001a). Details: method as in ref 35259078. The conditions noted are these: Vero E6.
Series [7] concerns human parainfluenza virus 3 (HPIV3). The arrangement: method as in ref 16973588. The conditions noted are these: HPIV3 fusion, HeLa.
For series [8], the system named is Hendra virus(HeV).
The test system of series [9] is human parainfluenza virus 3 (HPIV3). Details: method as in ref 16973588. The note with it: HPIV3 infection, HeLa.
Series [10] has as its system Hendra virus(HeV). This is another data set of the same source.
Series [11] concerns HCoV-229E.
In series [12] the test system is SARS-CoV-2. Details: method as in 3 sources. The note with it: SARS-CoV-2 PsV, Huh-7.
The test system of series [13] is SARS-CoV. The source holds these as a separate data set.
Series [14] has as its system SARS-CoV-2. The arrangement: method as in 3 sources. The conditions noted are these: SARS-CoV-2 S-mediated fusion.
A further series concerns A/Parma0/5/06 H3N2. The conditions noted are these: A/Parma0/5/06 H3N2, MDCK.

Where two headings read alike, the source gives them in different places. Bounds are passed on as bounds.

As to “DEDLEELERLYRKAEEVAKEAKDASRRGDDERAKEQMERAMRLFDQVFELAQELQEKQTDGNRQKATHLDKAVKEAADELYQRVR [DRAVPe00480]”, the IC50 (commonly the concentration at which inhibition is half-maximal) in the series with SARS-CoV-2 [1] is 0.035 µM.

On to “ELEEQVMHVLDQVSELAHELLHKLTGEELERAAYFNWWATEMMLELIKSDDEREIREIEEEARRILEHLEELARK [DRAVPe00481]”, for which the IC50 with SARS-CoV-2 [1] was 0.0155 µM.

In the case of FVPWFSKFlKRIL [DRAVPe00383], the IC90 (as a rule, the point of the concentration-response curve where the effect stands at 90%) is 16.3 µM in the series on HCoV-OC43; 12.9 µM with SARS-CoV-2 [2]; 10.5 µM in the series with HSV-1; 7.99 µM in the series on HSV-2; more than 50 µM with HPIV-3; 50 µM in the series with HCoV-229E [3].

FVPWFSKFlkRIL [DRAVPe00384]: the concentration for an effect of 90% (IC90) was 29.2 µM with HCoV-OC43; 25.3 µM with SARS-CoV-2 [2]; 12.7 µM in the series with HSV-1; 12.5 µM in the series with HSV-2; more than 50 µM with HPIV-3; 50 µM in the series on HCoV-229E [3].

Take GYFVQDDGEWKFTGSSYYY [DRAVPe01421]: the IC50 with SARS-CoV [4] was 4 µM.

As to KANEGLTWNSLKDK [DRAVPe01644], the concentration for a half-maximal effect (EC50) (commonly the concentration giving half of the maximal effect) with A/Roma-ISS/02/08 H1N1 is 0.001 ± 0.00015 µM.

Regarding KFFRKKSVKK [DRAVPe01822], the concentration for a half-maximal effect (EC50) is 5.2 ± 0.9 µM in the series with influenza A virus(H1N1) (H1N1, MDCK) and 7.36 ± 1.2 µM in the series on influenza A virus(H3N2) (H3N2, MDCK).

Regarding KKKKYRNIRRPG [AVP1641], the Activity in the series with SARS coronavirus is 45 µg/mL.

With MGRFKRFRKKFKKLFKKLS [DRAVPe01948], the inhibition (as a rule, the relative decrease from the control value, in per cent) is 50% in the series with HSV, 50% with Dengue virus 2(DENV2) and 80% in the series with SARS-CoV-2 [5].

On to NHEAEDLFY [DRAVPe01629], for which the inhibition with SARS-CoV [6] is 30%.

Regarding RGAHIKGRWKSRCHRF [DRAVPe01802], the IC50 in the series with influenza A virus(H1N1) (A(H1N1), MDCK) was 3.9 µg/mL; with SARS-CoV-2(Delta) it was 3.9 µg/mL; in the series with influenza B virus, 7.1 µg/mL; in the series with SARS-CoV-2 (HKU001a), 2.9 µg/mL; in the series with influenza A virus(H3N2) (A(H3N2), MDCK) it was 1.6 µg/mL.

As to “SIELNKAKSDLEESKEWIRRSNQKLDSI [DRAVPe01316]”, the IC50 in [7] was more than 10 µM; in the series with Hendra virus(HeV) [8], more than 10 µM; in series [9], more than 10 µM; in the series on Hendra virus(HeV) [10], more than 1 µM.

For the substance “SLDYINVTFLDLQDEMNRLQEAIKVLNQSYINLKDI [DRAVPe00419]”, the IC50 with HCoV-229E [11] was 2.01 ± 0.698 µM; in the series on SARS-CoV-2 [12], 0.0828 ± 0.0221 µM; with MERS-CoV, 0.0052 µM; in the series with HCoV-NL63 it was 0.416 ± 0.228 µM; with SARS-CoV [13], 0.25 µM; in the series with SARS-CoV-2 [14] it was 0.0041 ± 0.001 µM.

As to TNGESTADWAKN [DRAVPe01645], the EC50 in the series with A/Parma0/5/06 H3N2 was 0.01 µM; in the series with A/Roma-ISS/02/08 H1N1 it was 0.4 ± 2e-05 µM.

In the case of “VALDPIDISIELNKAKSDLEESKEWIRR [DRAVPe01315]”, the IC50 in series [7] was more than 10 µM; in the series with Hendra virus(HeV) [8], more than 10 µM; in series [9], more than 10 µM; in the series with Hendra virus(HeV) [10], more than 1 µM.

As to “VANDPIDISIELNKAKSDLEESKEWIRRSNQKLDSD [DRAVPe01314]”, the concentration for half-maximal inhibition (IC50) in series [7] was 0.75 µM; in the series on Hendra virus(HeV) [8] it was more than 10 µM; in [9], 1.1 µM; with Hendra virus(HeV) [10], more than 1 µM.
